Source: PubChem BioAssay (NCI)
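These data come from cells grown in 96-well plates and exposed to compound for 48 hours at five concentrations. TGI: total growth inhibition.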

Assays:
Test in all cases: NCI-60 cell line screen, 48 h
[1] = test system: NCI/ADR-RES ovarian
[2] = test system: SN12C renal
[3] = test system: SF-295 CNS
[4] = test system: HCC-2998 colon
[5] = test system: PC-3 prostate
[6] = test system: NCI-H23 lung
[7] = test system: U251 CNS
[8] = test system: K-562 leukemia
[9] = test system: M14 melanoma
[10] = test system: MALME-3M melanoma
[11] = test system: IGROV1 ovarian
[12] = test system: MDA-MB-435
[13] = test system: UACC-257 melanoma
[14] = test system: SK-MEL-28 melanoma
[15] = test system: SR leukemia
[16] = test system: RPMI-8226 leukemia
[17] = test system: A549 NSCLC
[18] = test system: BT-549 breast
[19] = test system: ACHN renal
[20] = test system: KM12 colon
[21] = test system: SNB-19 CNS
[22] = test system: COLO 205 colon
[23] = test system: NCI-H226 lung
[24] = test system: MCF7 breast
[25] = test system: 786-0 renal
[26] = test system: HOP-92 NSCLC
[27] = test system: NCI-H522 lung
[28] = test system: MDA-N
[29] = test system: MOLT-4 leukemia
[30] = test system: CCRF-CEM leukemia
[31] = test system: OVCAR-3 ovarian
[32] = test system: SK-OV-3 ovarian
[33] = test system: HCT-116 colon
[34] = test system: A498 renal
[35] = test system: MDA-MB-231 breast
[36] = test system: OVCAR-5 ovarian
[37] = test system: HOP-62 NSCLC
[38] = test system: LOX IMVI melanoma
[39] = test system: UO-31 renal
[40] = test system: T-47D breast
[41] = test system: SK-MEL-2 melanoma
[42] = test system: OVCAR-8 ovarian
[43] = test system: UACC-62 melanoma
[44] = test system: HL-60(TB) leukemia
[45] = test system: HS 578T breast
[46] = test system: HCT-15 colon
[47] = test system: SK-MEL-5 melanoma
[48] = test system: RXF 393 renal
[49] = test system: HT29 colon
[50] = test system: DU-145 prostate
[51] = test system: SF-268 CNS
[52] = test system: SF-539 CNS
[53] = test system: SNB-75 CNS
[54] = test system: CAKI-1 renal
[55] = test system: SW-620 colon
[56] = test system: EKVX NSCLC
[57] = test system: OVCAR-4 ovarian
[58] = test system: TK-10 renal
[59] = test system: NCI-H460 lung

CCOC(=O)C1=NNC(C(=O)c2ccccc2)C1c1ccccc1 (stereo not drawn)
TGI [1]: 12.3 µM | TGI [2]: 3.89 µM | TGI [3]: 31.8 µM | TGI [4]: 3.92 µM | TGI [5]: 22.5 µM | TGI [6]: 6.17 µM | TGI [7]: 8.48 µM | TGI [8]: > 100 µM | TGI [9]: 3.75 µM | TGI [10]: 4.77 µM | TGI [11]: > 34 µM | TGI [12]: 3.89 µM | TGI [13]: 6.74 µM | TGI [14]: 3.67 µM | TGI [15]: > 100 µM | TGI [16]: > 47.2 µM | TGI [17]: 41.2 µM | TGI [18]: 4.37 µM | TGI [19]: 3.71 µM | TGI [20]: 19.8 µM | TGI [21]: 27.8 µM | TGI [22]: 3.69 µM | TGI [23]: 39.5 µM | TGI [24]: 5.82 µM | TGI [25]: 6.3 µM | TGI [26]: 4.46 µM | TGI [27]: 2.02 µM | TGI [28]: 3.98 µM | TGI [29]: > 34.8 µM | TGI [30]: > 100 µM | TGI [31]: 11 µM | TGI [32]: 33.1 µM | TGI [33]: 7 µM | TGI [34]: > 100 µM | TGI [35]: 12.2 µM | TGI [36]: 17.4 µM | TGI [37]: 26 µM | TGI [38]: 10.6 µM | TGI [39]: 3.71 µM | TGI [40]: 29.3 µM | TGI [41]: 31.2 µM | TGI [42]: 22 µM | TGI [43]: 8.63 µM | TGI [44]: 2.86 µM | TGI [45]: 20.5 µM | TGI [46]: 5.94 µM | TGI [47]: 5.78 µM | TGI [48]: 3.78 µM | TGI [49]: 5.3 µM | TGI [50]: 25.9 µM | TGI [51]: 19.2 µM | TGI [52]: 4.76 µM | TGI [53]: 16.7 µM | TGI [54]: 3.25 µM | TGI [55]: 3.48 µM | TGI [56]: 36.6 µM | TGI [57]: > 38.3 µM | TGI [58]: 6.42 µM

N#Cc1c(N)c2c(c(-c3ccccc3)c1-c1ccccc1)C(=O)N(O)C2=O
TGI [1]: > 100 µM | TGI [2]: > 100 µM | TGI [3]: > 100 µM | TGI [4]: > 100 µM | TGI [5]: 48.1 µM | TGI [7]: > 100 µM | TGI [8]: > 100 µM | TGI [9]: > 100 µM | TGI [10]: > 100 µM | TGI [11]: 75.2 µM | TGI [12]: > 100 µM | TGI [13]: > 100 µM | TGI [14]: > 100 µM | TGI [15]: > 100 µM | TGI [59]: > 100 µM | TGI [16]: > 100 µM | TGI [17]: > 100 µM | TGI [18]: > 100 µM | TGI [19]: > 100 µM | TGI [20]: 83.5 µM | TGI [21]: > 100 µM | TGI [22]: 52.2 µM | TGI [23]: 62.8 µM | TGI [24]: > 100 µM | TGI [25]: > 100 µM | TGI [26]: > 100 µM | TGI [27]: > 100 µM | TGI [28]: > 100 µM | TGI [29]: > 100 µM | TGI [30]: > 100 µM | TGI [31]: > 100 µM | TGI [33]: 82.4 µM | TGI [34]: > 100 µM | TGI [35]: > 100 µM | TGI [36]: > 100 µM | TGI [38]: > 100 µM | TGI [39]: > 100 µM | TGI [40]: 73.9 µM | TGI [41]: > 100 µM | TGI [42]: > 100 µM | TGI [43]: > 100 µM | TGI [44]: > 100 µM | TGI [45]: 99.6 µM | TGI [46]: > 100 µM | TGI [47]: > 100 µM | TGI [48]: 44.3 µM | TGI [50]: > 100 µM | TGI [51]: > 100 µM | TGI [52]: > 100 µM | TGI [53]: > 100 µM | TGI [54]: > 100 µM | TGI [55]: > 100 µM | TGI [56]: > 100 µM | TGI [57]: > 100 µM | TGI [58]: > 100 µM
